Patent publication EP0655460B1, “Pharmacotherapeutical use of glutathione derivatives” (Ohlenschläger, Gerhard, Dr. med., priority 1987, dated 1989)
Read-outs that look alike come from different tables or passages of the source.

Assays:
[1] = cited from earlier work
[2] = Toxicity of the therapeutic dosage in small animals; type: in vivo; conditions: small animals such as Graumäusen, Wistar-Ratten und Kaninchen; therapeutic dosage (2 - 5 mg/kg for man)
Experimental: Die therapeutische Dosierung, die sich im Tierversuch an Kleintieren wie Graumäusen, Wistar-Ratten und Kaninchen als untoxisch erwiesen hat, liegt für den Menschen in einem Bereich von 2 - 5 mg/kg Körpergewicht für eine Einzeldosis bei langsamer intravenöser Injektion, wobei das Injektionsvolumen 5 ml beträgt mit einem Gehalt an reduziertem Glutathion von 150 mg.

Redoxstatus des Blutes [3] = conditions: Kaninchen, Ohrvenenblut, 10 mg/kg intravenös, 5 - 10 Minuten after application, after load, n = 30, mean ± SD
Experimental: Bei 5 verschiedenen Kaninchen wurden in 30 Versuchen im venösen Blut folgende Parameter nach der Methode und mit dem gerät VINCENT gemessen: • Ohm'scher Widerstand: r • Redoxpotential EH bzw. Elektronenpotential: rH2 • pH-Wert: pH.
Die Werte wurden im Ohrvenenblut nach definierter Sauerstoffmangel-Belastung gemessen.
Danach wurde den Tieren reduziertes Glutathion in einer Dosis von 10 mg/kg Körpergewicht intravenös verabreicht.
5 - 10 Minuten nach der Applikation von reduziertem Glutathion wurden folgende Werte ermittelt:
Randbedingungen: Temperatur 20°C, Luftdruck 767 mm Hg.

[4] = cited from earlier work; remark: listed apart in the source
Redoxstatus des Blutes [5] = conditions: human venous blood, 600 mg langsam intravenös, 10 Minuten after application, after load, n = 50, mean ± SD
Experimental: 2.2) Selbstversuch am Menschen zur Verbesserung und/oder zur Normalisierung des Redorstatus des Blutes:
Im menschlichen Venenblut wurden nach definierter Sauerstoff-Mangel-Belastung die gleichen Parameter bestimmt wie im vorstehend gegchilderten Versuch. Insgesamt wurden 50 Versuche an verschiedenen Tagen durchgeführt.
Danach wurde-reduziertes Glutathion in einer Dosis von 600 mg langsam intravenös verabreicht.
Randbedingungen: Temperatur 20°C, Luftdruck 758 - 770 mm Hg.

[6] = system: malignen Melanoms vom Menschen; conditions: 300 mg three times weekly
Experimental: 2.4) Versuch an 40 gesunden Graumäusen nach Transplantation eines malignen Melanoms vom Menschen.
40 gesunden Graumäusen wurden je 10^6 maligne Melanomzellen überimpft.
30 Tiere wurden vom Beginn der Versuchsreihe an drei mal wöchentlich mit je 300 mg reduziertem Glutathion behandelt.

[7] = system: malignen Melanoms vom Menschen; conditions: 4 mice, 10^6 melanoma cells, 250 mg three times weekly
Excerpt: 2.3) Versuch an 8 gesunden Graumäusen nach Transplantation eines malignen Melanoms vom Menschen.
In Fig. 1 ist das Wachstum des Tumors in Abhängigkeit von der Zeit dargestellt.

[8] = cited from earlier work; remark: listed apart in the source
[9] = system: Glukose-6-Phosphat-Dehydrogenase; conditions: same conditions as 1.1 (0,5 mg, 37°C, 30 Minuten); n = 22, mean ± SD; Leerwert 148 ± 22
Experimental: (§1) Von 20 Patienten mit unterschiedlichen Erkrankungen wurden jeweils 10 ml menschlichen Venenblutes entnommen und dessen Gerinnungsfähigkeit durch Zusatz von Heparin aufgehoben. Als Parameter für die optimale Erythrozytenfunktion wurde vor und nach der Inkubation mit 0,5 mg reduziertem Glutathion bei 37°C während eines Zeitraumes von 30 Minuten der Gehalt an intraerythrozytärem reduziertem Glutathion bestimmt.
(§2) 1.2) In-vitro-Versuch an Zellensystemen menschlicher Erythrozyten:
(§3) Unter denselben Bedingungen wie bei vorstehend beschriebenem Versuch wurden die Enzyme Glukose-6-Phosphat-Dehydrogenase und Glutathion-Reduktase aus Erythrozyten von 22 Patienten in vitro untersucht.

Glutathion-Reduktase = Glutathion-Reduktase (Homo sapiens, UniProt P00390); conditions: same conditions as 1.1 (0,5 mg, 37°C, 30 Minuten); n = 22, mean ± SD; Leerwert 9,5 ± 0,8
Glutathion-Reduktase, sequence (P00390 44-522): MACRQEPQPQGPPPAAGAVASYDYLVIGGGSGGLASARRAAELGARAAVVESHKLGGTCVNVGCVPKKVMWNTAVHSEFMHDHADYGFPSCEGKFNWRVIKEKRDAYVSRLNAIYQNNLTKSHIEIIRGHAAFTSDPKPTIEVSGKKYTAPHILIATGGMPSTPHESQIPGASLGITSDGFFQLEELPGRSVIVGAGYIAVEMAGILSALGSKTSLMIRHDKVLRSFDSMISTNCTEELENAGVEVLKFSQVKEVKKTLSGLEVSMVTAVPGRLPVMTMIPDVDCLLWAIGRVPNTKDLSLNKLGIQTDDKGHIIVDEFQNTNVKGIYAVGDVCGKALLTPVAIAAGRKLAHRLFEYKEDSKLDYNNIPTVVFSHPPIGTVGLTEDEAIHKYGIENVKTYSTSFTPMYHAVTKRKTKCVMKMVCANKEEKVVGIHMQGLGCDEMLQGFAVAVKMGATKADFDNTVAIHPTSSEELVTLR
Experimental: as §1, §2, §3

[10] = 30 treated mice, 10^6 melanoma cells

N[C@@H](CCC(=O)N[C@@H](CS)C(=O)NCC(=O)O)C(=O)O [reduziertes Glutathion, gamma-Glutamyl-cysteinyl-glycin]
biologische Halbwertszeit in der Augenlinse ([1]; human tissue: Augenlinse): ca. 30 Std.
biologische Halbwertszeit im Erythrozyten ([1]; human tissue: Erythrozyten): ca. 100 Std.
biologische Halbwertszeit im Gehirn ([1]; human tissue: Gehirn): ca. 70 Std.
biologische Halbwertszeit in der Leber ([1]; human tissue: Leber): ca. 4 Std.
Toxizität der therapeutischen Dosierung im Tierversuch [2]: untoxisch
pH-Wert (Redoxstatus des Blutes [3]; without: 7,38 ± 0,21): pH = 7,15 ± 0,16
Ohm'scher Widerstand r (Redoxstatus des Blutes [3]; without: 199 ± 12): r = 202 ± 14 Ohm/cm^3
Löslichkeit in Wasser ([4]; Wasser): leicht löslich
Löslichkeit in physiologischer Kochsalzlösung ([4]; physiologischer Kochsalzlösung): leicht löslich
Löslichkeit in Äthanol ([4]; Äthanol): löslich
pH-Wert (Redoxstatus des Blutes [5]; without: 7,41 ± 0,18): pH = 7,23 ± 0,11
Ohm'scher Widerstand r (Redoxstatus des Blutes [5]; without: 197 ± 14,5): r = 204 ± 12,3 Ohm/cm^3
weitere gestorbene Tiere innerhalb 20 Tagen [6, 10]: fünf
weitere gestorbene Tiere innerhalb 30 Tagen [6, 10]: sieben
gestorbene Tiere innerhalb 15 Tagen ([6]; 30 treated mice, 10^6 melanoma cells, controls died within 8 - 12 Tagen): drei
Anteil überlebender behandelter Tiere, 30 Tage Beobachtungszeitraum ([6]; of 30 treated mice): 50%
überlebende Tiere, 30 Tage Beobachtungszeitraum ([6]; of 30 treated mice): 15 Tiere
Überleben ([7]; controls died within 8 - 14 Tagen): überlebten bis zur siebten Woche
Tumorwachstum ([7]; versus untreated controls): deutlich langsameres Tumorwachstum
pK-Wert COOH(1) ([8]; COOH(1)): 3,53
pK-Wert COOH(2) ([8]; COOH(2)): 2,12
pK-Wert NH3 ^+ ([8]; NH3 ^+): 8,66
pK-Wert SH ([8]; SH): 9,66
Glukose-6-Phosphat-Dehydrogenase, Werte nach Inkubation [9]: 179 ± 16 mU/ 10^9 Erys.
Glutathion-Reduktase, Werte nach Inkubation (Glutathion-Reduktase): 11,3 ± 1,2 U/ 10^11 Erys.
